Measurements as given in patent EP3050886A1, “Fluorescent dyes and dye precursors” (Bürkert Werke GmbH, priority 2015, dated 2016).

Legend:
E. coli (ATCC 8739) = assay: Labeling of viable or dead E. coli, fluorescence microscopy; type: cell-based, Escherichia coli; details: 15 µM, 30 min at 37 °C, Figure 4
Procedure: Escherichia coli (E. coli) (ATCC 8739) and Bacillus subtilis (B. subtilis) (ATCC 6633) strains were routinely grown in Luria Bertani (LB) broth or on LB agar plates for 18h at 37 °C. Waterborne environmental bacteria such as Enterobacter cloacae (E. cloacae), Chryseobacterium indologenes (C. indologenes), Pseudomonas aeruginosa (P. aeruginosa), and E. coli (EC18) were purchased from Eurofins™. Environmental bacteria were grown in LB broth or on casein-peptone soymeal-peptone agar plates for 18h at 37 °C.
For the staining tests, E. coli (ATCC 8739 or EC18), E. cloacae, C. indologenes, P. aeruginosa and B. subtilis were cultivated in Luria-Bertani (LB) broth until exponential phase at 37°C with shaking at 300 rpm revolutions per minutes (rpm). Bacteria were harvested and washed in sterile phosphate buffer saline solution (PBS) at pH […] by centrifugation at 10000 rpm for 3 min at room temperature (21 ± 2 °C). Then the bacteria were resuspended in PBS at a concentration of 1·10^9 bacteria/ml. Bacteria concentration was calculated according to the turbidity measure at 660 nm (A660nm=1 correspond to bacterial suspension at ∼ 5·10^8 bacteria/ ml).
Dead bacterial suspensions at 1·10^9 bacteria/ml (negative controls) of these five species of bacteria were prepared individually by addition of 20 µl of bleach containing 2.6 % active chlorine. Bacteria were treated with bleach solution for 15 min. Dead bacteria were washed twice in sterile PBS by centrifugation at 10000 rpm for 3 min at room temperature. The culturability of the negative controls was assessed by plating 100 µl of bacterial suspension onto LB agar or Caso agar and incubating the plates at 37 °C for 72 h.
Bacteria (100 µl suspension at 1·10^9 bacteria/ml) were stained with 10 µM or 15 µM of pro-fluorophore (5-CFDA, 5-PFDAE, 5-PFDAT, 5-PFDA, 5-COGDA, 5-POGDA or 5-POGAM) in 200 µl of PBS solution containing 0.6 % of glutaraldehyde. Bacteria were incubated at 37 °C for 10 - 60 min with pro-fluorophore in darkness. After bacterial staining, they were washed and resuspended in 100 µl of PBS as described above.
Staining of the bacterial suspension was observed under a fluorescent microscope. These bacteria were imaged with a Leica DM5500 microscope equipped with FITC filter. […] Images were collected with a 100x objective. Fluorescence intensity of stained bacterial suspension was also measured with FluoroLog®-3 (Horiba Jobin Yvon) spectrofluorometer equipped with sample stirring. Samples were placed in fluorescence grade quartz cuvette having a volume of 1 ml. The excitation wavelength used was 488 nm and emission wavelength used was 517 nm. The same experiment was repeated three times (n = 3).
The pro-fluorophores according to the present invention are preferably used to label E. coli cells. Viable or dead E. coli (ATCC 8739) are incubated with these fluorophores and commercial 5-CFDA as described above. […] Glutaraldehyde is added to the incubation solutions to improve the retention of the fluorophores in bacteria.
Bacteria were washed before being imaged with a Leica DM5500 microscope, 100x objective. Scale bars indicate 10 µm.

E. coli (EC18) = assay: Immunocapture of E. coli on beads and viability staining; type: cell-based, Escherichia coli; details: 10 µM, 30 min at 37 °C, Trypan Blue as contrast agent
Text: In a further test, antibodies anti-EC18 pAB and pro-fluorophores (5-POGDA, 5-POGAM) were used to immobilize E. coli (EC18) on beads and to reveal the immobilized bacteria respectively. Immunocapture of E. coli on beads was done in order to concentrate the fluorescent signal in order to improve the detection of the viable cells. In these experiments, Protein G Sepharose beads coated with goat-anti-rabbit immunoglobulins were used.
Environmental E. coli (E18) were cultivated and re-suspended in PBS as previously described. E. coli (EC18) (100 µl of suspension at 1*10^9 bacteria/ml) were incubated with rabbit anti-EC18 polyclonal antibodies (anti-EC18 pAb) or pre-immune control rabbit serum without anti-EC18 antibodies (PI-pAb) (dilution 1/20) for 1 h at room temperature. This control rabbit serum (PI-pAb) was obtained from a non-immunized animal (Eurogentec). It was used as a negative control. Bacteria were washed three times in PBS by centrifugation at 10000 rpm for 3 min at room temperature.
Proteine G Sepharose 4 Fast Flow beads were washed three times in Milli-Q water and three times in PBS by centrifugation at 2000 rpm for 2 min at 4 °C. Then 10 µl of sedimented beads were incubated with 20 µg of secondary antibody goat-anti-rabbit immunoglobulin (Thermo Scientific Pierce, 31210) in 500 µl of PBS with 0.001% of NP40 for 1h at room temperature with gentle mixing on a wheel. […]

Structure (SMILES) | staining of viable E. coli (microscopy) (E. coli (ATCC 8739)) | fluorescence intensity of viable E. coli captured on beads compared with 5-CFDA (E. coli (EC18))
CCCNC(=O)c1ccc2c(c1)C(=O)OC21c2cc(F)c(OCOC(C)=O)cc2Oc2cc(OCOC(C)=O)c(F)cc21 [Example 5-POGAM, 2',7'-difluoro-3-oxo-5-(propylcarbamoyl)-3H-spiroisobenzofuran-1,9'-xanthene-3',6'-diyl diacetoxymethyl ether] | specifically stained with high fluorescence intensity | still higher than the fluorescence intensity of E. coli stained with 5-CFDA
CCCNC(=O)c1ccc2c(c1)C(=O)OC21c2cc(F)c(OC(C)=O)cc2Oc2cc(OC(C)=O)c(F)cc21 [Example 5-POGDA, 2',7'-difluoro-3-oxo-5-(propylcarbamoyl)-3H-spiro[isobenzofuran-1,9'-xanthene]-3',6'-diyl diacetate] | specifically stained with high fluorescence intensity | still higher than the fluorescence intensity of E. coli stained with 5-CFDA
